Measurements from patent publication US11926625B2, “HPK1 antagonists and uses thereof” (Nimbus Saturn, Inc., priority 2021, dated 2024).

Target: T1, HPK1 (Homo sapiens, UniProt Q92918)
T1 construct: purchased Invitrogen
Assay: HPK1 biochemical enzyme assay (microfluidic mobility shift, Caliper)
Conditions: 1.5 nM HPK1 (Invitrogen), 1 mM ATP, 30 min preincubation, 60 min at RT, top concentration 3 μM; read-out: HPK1 1000UMATP caliper IC50
Description: Example 20. HPK1 Biochemical Enzyme Assay
HPK1 biochemical enzyme assay: HPK1 enzyme inhibition was measured using a microfluidic mobility shift assay. Reactions were performed in a 384-well plate, containing 1.5 nM HPK1 (Invitrogen), in assay buffer (Cama Biosciences; pH 7.4). Test compounds were titrated in ten point curves (top final assay concentration 3 μM), and preincubated with enzyme/substrate mix for 30 min prior to initiation of the reaction by addition of ATP (1 mM final concentration) and substrate (1 μM final concentration; Carna Biosciences) diluted in assay buffer supplemented by MgCl2 (final assay concentration of 5 mM). Following 60 min incubation at RT, the reaction was terminated by addition of 60 μl/well termination buffer (Carna Biosciences) and signal determination using a Caliper EZ Reader (Perkin Elmer, UK).

T1 sequence (Q92918 whole entry): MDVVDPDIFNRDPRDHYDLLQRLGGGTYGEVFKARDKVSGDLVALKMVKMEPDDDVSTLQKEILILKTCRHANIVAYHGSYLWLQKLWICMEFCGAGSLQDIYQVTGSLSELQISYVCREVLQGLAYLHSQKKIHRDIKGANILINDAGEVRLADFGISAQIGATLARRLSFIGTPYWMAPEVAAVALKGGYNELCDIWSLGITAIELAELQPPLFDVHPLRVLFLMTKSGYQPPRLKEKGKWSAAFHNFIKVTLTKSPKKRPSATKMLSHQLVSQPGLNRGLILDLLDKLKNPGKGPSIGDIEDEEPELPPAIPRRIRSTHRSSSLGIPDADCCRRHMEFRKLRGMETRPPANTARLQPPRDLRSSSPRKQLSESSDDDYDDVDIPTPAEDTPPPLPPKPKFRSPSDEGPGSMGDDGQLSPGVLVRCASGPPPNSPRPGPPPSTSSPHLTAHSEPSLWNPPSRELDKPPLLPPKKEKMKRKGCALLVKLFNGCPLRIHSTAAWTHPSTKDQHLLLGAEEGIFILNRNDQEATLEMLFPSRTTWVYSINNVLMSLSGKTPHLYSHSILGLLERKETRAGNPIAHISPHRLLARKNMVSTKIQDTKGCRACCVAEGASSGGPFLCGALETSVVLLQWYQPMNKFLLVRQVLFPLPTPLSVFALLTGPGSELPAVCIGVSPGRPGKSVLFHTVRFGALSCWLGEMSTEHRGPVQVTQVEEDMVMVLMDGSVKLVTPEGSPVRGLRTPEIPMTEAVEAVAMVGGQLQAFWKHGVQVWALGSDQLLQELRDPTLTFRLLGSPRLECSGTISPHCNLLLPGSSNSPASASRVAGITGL

Row | SMILES | IC50
1 | O=C1NCc2c(-c3ccncc3)ncc(Nc3ccc(N4CCC(O)CC4)cn3)c21 [Compound I-13, 7-[[5-(4-hydroxy-1-piperidyl)-2-pyridyl]amino]-4-(4-pyridyl)-2,3-dihydropyrrolo [3,4-c]pyridin-1-one] | 1 to 5 µM
2 | CN1CCN(c2ccc(Nc3ccc(-c4ccnc(C#C[C@H]5CCCO5)c4)c4c3C(=O)NC4)nc2)CC1 [Compound I-85] | < 1 µM
3 | CCc1cnc(C)cc1-c1ncc(Nc2ccc(N3CCNCC3)cn2)c2c1CNC2=O [Compound I-21, 4-(5-ethyl-2-methyl-4-pyridyl)-7-[(5-piperazin-1-yl-2-pyridyl)amino]-2,3-dihydropyrrolo [3,4-c]pyridin-1-one] | 1 to 5 µM
4 | CN1CCN(c2ccc(Nc3cnc(-c4ccncc4F)c4c3C(=O)NC4)nc2)CC1 [Compound I-22, 4-(3-fluoro-4-pyridyl)-7-[[5-(4-methylpiperazin-1-yl)-2-pyridyl]amino]-2,3-dihydropyrrolo [3,4-c]pyridin-1-one] | 1 to 5 µM
5 | CN1CCN(c2ccc(Nc3ccc(-c4ccnc(C5CCOCC5)c4)c4c3C(=O)NC4)nc2)CC1 [Compound I-44, 7-[[5-(4-methylpiperazin-1-yl)-2-pyridyl]amino]-4-(2-tetrahydropyran-4-yl-4-pyridyl) isoindolin-1-one] | 1 to 5 µM
6 | CN1CCN(c2ccc(Nc3ccc(-c4cc(N5CC6CCC(C5)O6)ncn4)c4c3C(=O)NC4)nc2)CC1 [Compound I-61, 4-(6-(8-oxa-3-azabicyclo [3.2.1]octan-3-yl)pyrimidin-4-yl)-7-((5-(4-methylpiperazin-1-yl)pyridin-2-yl)amino) isoindolin-1-one] | 1 to 5 µM
7 | Cc1cc(-c2ncc(Nc3ccc(N4CCNCC4)cn3)c3c2CNC3=O)ccn1 [Compound I-9, 4-(2-methyl-4-pyridyl)-7-[(5-piperazin-1-yl-2-pyridyl)amino]-2,3-dihydropyrrolo [3,4-c]pyridin-1-one] | 1 to 5 µM
8 | Cc1cc(-c2ccc(Nc3ccc(N4CCN(C)CC4)cn3)c3c2CNC3=O)cc(=O)[nH]1 [Compound I-57, 4-(6-methyl-2-oxo-1,2-dihydropyridin-4-yl)-7-((5-(4-methylpiperazin-1-yl)pyridin-2-yl)amino) isoindolin-1-one] | < 1 µM
9 | O=C1NCc2c(-c3ccncc3)ccc(Nc3ccc(N4CCNCC4)cn3)c21 [Compound I-27, 7-[(5-piperazin-1-yl-2-pyridyl)amino]-4-(4-pyridyl) isoindolin-1-one] | < 1 µM
10 | CN1CCN(c2ccc(Nc3ccc(-c4ccnc(C5(C#N)CCOCC5)c4)c4c3C(=O)NC4)nc2)CC1 [Compound I-46, 4-[4-[7-[[5-(4-methylpiperazin-1-yl)-2-pyridyl]amino]-1-oxo-isoindolin-4-yl]-2-pyridyl] tetrahydropyran-4-carbonitrile] | < 1 µM
11 | O=C1NCc2c(-c3ccncc3)ncc(Nc3ccc(N4CCOCC4)cn3)c21 [Compound I-14, 7-[(5-morpholino-2-pyridyl)amino]-4-(4-pyridyl)-2,3-dihydropyrrolo [3,4-c]pyridin-1-one] | 1 to 5 µM
12 | CN1CCN(c2ccc(Nc3ccc(-c4ccncc4C4CCOCC4)c4c3C(=O)NC4)nc2)CC1 [Compound I-70, 7-((5-(4-methylpiperazin-1-yl)pyridin-2-yl)amino)-4-(3-(tetrahydro-2H-pyran-4-yl)pyridin-4-yl)isoindolin-1-one] | 1 to 5 µM
13 | CN1CCN(c2ccc(Nc3ccc(-c4ccnc(C5CCCOC5)c4)c4c3C(=O)NC4)nc2)CC1 (centres unmarked) [Compound I-66, 7-((5-(4-methylpiperazin-1-yl)pyridin-2-yl)amino)-4-(2-(tetrahydro-2H-pyran-3-yl)pyridin-4-yl)isoindolin-1-one] | 1 to 5 µM
14 | CN1CCN(c2ccc(Nc3cnc(-c4cc[nH]c4)c4c3C(=O)NC4)nc2)CC1 [Compound I-23, 7-[[5-(4-methylpiperazin-1-yl)-2-pyridyl]amino]-4-(1H-pyrrol-3-yl)-2,3-dihydropyrrolo [3,4-c]pyridin-1-one] | < 1 µM
